The source of these data is patent US8865706B2, “Heteroaryl-substituted hexahydropyrano[3,4-d][1,3]thiazin-2-amine compounds” (Pfizer Inc., priority 2013, dated 2014).

SMILES strings stand for the structures.

For assay [1], the target named is BACE1 enzyme (Homo sapiens (Human), UniProt P56817). Description: BACE1 Cell-Free Assay (fluorescence polarization, cleavage of synthetic APP substrate). Format: biochemical. The settings on record: average of 2 determinations; values marked b: geometric mean of 3-9 determinations. The source says: This assay measures the inhibition of the beta-secretase enzyme as it cleaves a non-native peptide.
BACE1 enzyme, sequence (P56817 46-457): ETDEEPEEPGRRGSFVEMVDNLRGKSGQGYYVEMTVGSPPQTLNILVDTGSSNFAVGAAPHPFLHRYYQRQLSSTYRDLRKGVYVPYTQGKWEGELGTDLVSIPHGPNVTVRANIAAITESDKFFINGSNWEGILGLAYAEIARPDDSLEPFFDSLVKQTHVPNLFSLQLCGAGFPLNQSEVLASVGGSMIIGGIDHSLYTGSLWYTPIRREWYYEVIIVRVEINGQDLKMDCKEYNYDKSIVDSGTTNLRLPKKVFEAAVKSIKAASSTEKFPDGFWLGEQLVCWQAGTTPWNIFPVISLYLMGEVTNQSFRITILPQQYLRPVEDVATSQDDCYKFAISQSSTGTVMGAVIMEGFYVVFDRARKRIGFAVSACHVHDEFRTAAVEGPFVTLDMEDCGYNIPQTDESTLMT
A synthetic APP substrate that can be cleaved by beta-secretase having N-terminal biotin and made fluorescent by the covalent attachment of Oregon Green at the Cys residue is used to assay beta-secretase activity in the presence or absence of the inhibitory compounds. […] The BACE1 enzyme is affinity purified material from conditioned media of CHO-K1 cells that have been transfected with a soluble BACE construct (BACE1deltaTM96His). Compounds are incubated in a ½ log dose response curve from a top concentration of 100 μM with BACE1 enzyme and the biotinylated fluorescent peptide in 384-well black plates (Thermo Scientific #4318). BACE1 is at a final concentration of 0.1 nM with a final concentration of peptide substrate of 150 nM in a reaction volume of 30 μL assay buffer [100 mM sodium acetate, pH 4.5 (brought to pH with acetic acid), and 0.001% Tween-20]. Plates are covered and incubated for 3 hours at 37° C. The reaction is stopped with the addition of 30 μL of 1.5 μM Streptavidin (Pierce, #21125). After a 10 minute incubation at room temperature, plates are read on a PerkinElmer EnVision for fluorescence polarization (Ex485 nm/Em530 nm). The activity of the beta-secretase enzyme is detected by changes in the fluorescence polarization that occur when the substrate is cleaved by the enzyme.
In general terms: Fluorescence polarisation rises when a labelled molecule tumbles more slowly, as on binding a larger partner.

For assay [2], the system named is sAPPβ levels in H4 human neuroglioma cells over-expressing the wild-type human APP695. The experiment in a line: Whole Cell Assay (In Vitro sAPPb Assay). Format: cell-based. The settings on record: Homo sapiens, 18 hours treatment, average of 2 determinations, values marked b: geometric mean of 3-9 determinations. How it is done: Whole Cell Assay (In Vitro sAPPb Assay):
H4 human neuroglioma cells over-expressing the wild-type human APP695 are treated for 18 hours with compound in a final concentration 1% DMSO. sAPPβ levels are measured using TMB-ELISA with capture APP N-terminal antibody (Affinity BioReagents, OMA1-03132), wild-type sAPPβ specific reporter p192 (Elan), and tertiary anti rabbit-HRP (GE Healthcare).

The IC50 is the point on the concentration scale where inhibition reaches its midpoint. The low end stands for greater potency, the high end for weaker potency. Turning to `COc1cnc([C@H]2C[C@H]3CSC(N)=N[C@@]3(c3ccc(F)cc3F)CO2)nc1` [Example 11, (4aR,6R,8aS)-8a-(2,4-Difluorophenyl)-6-(5-methoxypyrimidin-2-yl)-4,4a,5,6,8,8a-hexahydropyrano[3,4-d][1,3]thiazin-2-amine], the IC50 in assay [1] was determined as 343 nM; in assay [2] it was 29.1 nM.

Consider `NC1=N[C@@]2(c3ccc(F)cc3F)CO[C@@H](c3cnn(CC(F)(F)F)c3)C[C@H]2CS1` [Example 5, (4aR,6R,8aS)-8a-(2,4-Difluorophenyl)-6-[1-(2,2,2-trifluoroethyl)-1H-pyrazol-4-yl]-4,4a,5,6,8,8a-hexahydropyrano[3,4-d][1,3]thiazin-2-amine], for which the IC50 came to 72.8 nM in assay [1] and 13.3 nM in assay [2].

For the compound `C[C@H]1SC(N)=N[C@@]2(c3ccc(F)cc3F)CO[C@@H](c3cnn(C)c3)C[C@@H]12` [Example 16, (4R,4aR,6R,8aS)-8a-(2,4-Difluorophenyl)-4-methyl-6-(1-methyl-1H-pyrazol-4-yl)-4,4a,5,6,8,8a-hexahydropyrano[3,4-d][1,3]thiazin-2-amine], the IC50 was 24.6 nM in assay [1] and 2.84 nM in assay [2].

As to `NC1=N[C@@]2(c3ccc(F)cc3F)CO[C@@H](c3nc4cnccc4o3)C[C@H]2CS1` [Example 10, (4aR,6R,8aS)-8a-(2,4-difluorophenyl)-6-([1,3]oxazolo[4,5-c]pyridin-2-yl)-4,4a,5,6,8,8a-hexahydropyrano[3,4-d][1,3]thiazin-2-amine], the values for the IC50 in assay [1] and in assay [2] were 240 nM and 21.2 nM, respectively.

As for `Cn1cc([C@H]2C[C@H]3CSC(N)=N[C@@]3(c3ccc(F)cc3F)CO2)ccc1=O` [Example 3, 5-[(4aR,6R,8aS)-2-Amino-8a-(2,4-difluorophenyl)-4,4a,5,6,8,8a-hexahydropyrano[3,4-d][1,3]thiazin-6-yl]-1-methylpyridin-2(1H)-one], the IC50 turned out to be 119 nM in assay [1] and 7.43 nM in assay [2].

In the case of `Cn1ncc([C@H]2C[C@H]3CSC(N)=N[C@@]3(c3ccc(F)cc3F)CO2)n1` [Example 12, (4aR,6R,8aS)-8a-(2,4-Difluorophenyl)-6-(2-methyl-2H-1,2,3-triazol-4-yl)-4,4a,5,6,8,8a-hexahydropyrano[3,4-d][1,3]thiazin-2-amine], the 50% inhibitory concentration (IC50) in assay [1] amounted to 466 nM; in assay [2], 41.3 nM.

On to `Cc1cc([C@H]2C[C@H]3CSC(N)=N[C@@]3(c3ccc(F)cc3F)CO2)ccn1` [Example 27, (4aR,6R,8aS)-8a-(2,4-Difluorophenyl)-6-(2-methylpyridin-4-yl)-4,4a,5,6,8,8a-hexahydropyrano[3,4-d][1,3]thiazin-2-amine], for which the IC50 was found to be 221 nM in assay [1] and 4.73 nM in assay [2].

With `N#Cc1coc([C@H]2C[C@H]3CSC(N)=N[C@@]3(c3ccc(F)cc3F)CO2)n1` [Example 19, 2-[(4aR,6R,8aS)-2-Amino-8a-(2,4-difluorophenyl)-4,4a,5,6,8,8a-hexahydropyrano[3,4-d][1,3]thiazin-6-yl]-1,3-oxazole-4-carbonitrile], the IC50 in assay [1] worked out at 555 nM; in assay [2] it was 73.2 nM.

In the case of `COc1cc([C@H]2C[C@H]3CSC(N)=N[C@@]3(c3ccc(F)cc3F)CO2)ccn1` [Example 25, (4aR,6R,8aS)-8a-(2,4-Difluorophenyl)-6-(2-methoxypyridin-4-yl)-4,4a,5,6,8,8a-hexahydropyrano[3,4-d][1,3]thiazin-2-amine], the IC50 in assay [1] was 384 nM; in assay [2], 40.5 nM.

On to `Cn1cc(F)c([C@H]2C[C@H]3CSC(N)=N[C@@]3(c3ccc(F)cc3F)CO2)n1` [Example 8, (4aR,6R,8aS)-8a-(2,4-difluorophenyl)-6-(4-fluoro-1-methyl-1H-pyrazol-3-yl)-4,4a,5,6,8,8a-hexahydropyrano[3,4-d][1,3]thiazin-2-amine], for which the values for the IC50 in assay [1] and in assay [2] were 162 nM and 26.4 nM, respectively.
